Data on ten compounds can be found in US12351571B2, “Substituted quinoxaline compounds as inhibitors of FGFR tyrosine kinases” (ARRAY BIOPHARMA INC., priority 2018, dated 2025).

In experiment [1] the target is human wild type FGFR3 (Homo sapiens (Human), UniProt P22607). Kind of experiment: FGFR3 pERK Cell Assay. It is filed as cell-based. Conditions: HEK-293 cells, 1 hour compound, 100 ng/ml human FGF-acidic; maximum concentration 5 μM. The procedure: HEK-293 cells transfected with dox-inducible human wild type FGFR3 (SEQ ID NO: 5) were plated in a collagen or poly-D-lysine coated 96 well flat bottom plates at 4×10^5 cells/well in complete DMEM medium containing 10% FBS and 1 μg/ml doxycycline and allowed to attach for 24 h at 37° C., 5% CO2. Cells were treated with compound using 1:3 serial dilutions with a maximum final concentration of 5 μM. Compound was incubated on cells for 1 hour at 37° C., 5% CO2. Cells were then stimulated with a final concentration of 100 ng/ml human FGF-acidic (R&D Systems Cat number 232-FA/CF) for 5 minutes at 37° C., 5% CO2. Medium was removed, and cells were lysed with lysis buffer containing phosphatase and protease inhibitors. Phospho ERK1/2 was measured using the Meso Scale Discovery sandwich assay (Meso Scale Discovery cat. no. K151DWD). The assay captures phospho ERK1/2 and detects with a sulfo-tagged total ERK1/2 antibody. The chemiluminescent signal was read on the Sector Imager Plate reader. 100 POC was determined using no test compounds and 0 POC was determined using a control compound. The POC values were fit to a 4-parameter logistic curve as a function of the concentration of the compound, and the IC50 value is the point where the curve crosses 50 POC.

Experiment [2] deals with FGFR3 (Homo sapiens (Human), UniProt P22607). Kind of experiment: LC/MS FGFR3 kobs assay (covalent modification). In kind it is biochemical. As to conditions: 500 nM FGFR3, 3 μM compound. The procedure: The LC/MS FGFR1 and FGFR3 kobs assays were conducted as follows. 500 nM FGFR1 (Array BioPharma construct p1702; SEQ ID NO: 1, amino acids 458-765) or FGFR3 (Array BioPharma construct p1700; SEQ ID NO: 5, amino acids 449-759) were incubated with 3 μM compound in 25 mM HEPES (4-(2-hydroxyethyl)-1-piperazineethanesulfonic acid), pH 7.4, 5 mM MgCl2, 150 mM NaCl, 0.5 mM TCEP (tris(2-carboxyethyl) phosphine), and 2% DMSO in a total volume of 20 μL. At each time point, the reaction was quenched with 20 μL of 0.4% formic acid. The extent of protein modification by each compound was determined by LC/MS on an Agilent Technologies 6520 Q-TOF LC/MS. Protein signals were then automatically deconvoluted using Agilent Masshunter software. Deconvoluted mass signals were exported to Tibco Spotfire data analysis program for further processing and normalization.
Data analysis included five steps. First, the signals for the “DMSO Controls” were analyzed to determine the percent of signal associated with unmodified FGFR1 or FGFR3 at each time point. Next, the percent of the signal associated with the covalent modification was determined. Third, the average nonmodified “DMSO Control” signal was used to normalize the modified protein signals at each time point. The percent of unmodified protein was fit to an exponential decay model where A0 is the Percent Unmodified at the start of the reaction, and kobs is the observed rate constant over the time period.

The target of experiment [3] is recombinant human FGFR1 catalytic domain (Homo sapiens (Human), UniProt P11362). Kind of experiment: FGFR Enzyme Activity Assay (LanthaScreen TR-FRET), FGFR1. It is filed as biochemical. As to conditions: 15 μM ATP, 20 minutes incubation; read-out: FGFR1 Enz FRET IC50. The procedure:
FGFR1 kinase activity was measured by the Invitrogen LanthaScreen™ Assay technology which directly measures the amount of substrate phosphorylation by Time-resolved fluorescence energy transfer (TR-FRET) using a flourescently-labeled peptide and Europium-labeled antibody. Briefly, 200 pM His-tagged recombinant human FGFR1 catalytic domain (amino acids 308-731) (Life Technologies Cat. No. PR4660A) was incubated with 100 nM Alexa Fluor® 647-Poly-GT Peptide Substrate (Life Technologies Cat. No. PV5836) and 15 μM ATP along with test compound in a buffer consisting of 250 mM HEPES, 25 mM MgCl2, 0.05% TritonX-100, pH 7.5, and 2% DMSO. Compounds were typically prepared in a threefold serial dilution in DMSO and added to the assay to give the appropriate final concentration. After a 20 minutes incubation at 22° C., an equal volume of 2 nM LanthaScreen® Eu-PY20 Antibody (Life Technologies Cat. No. PV5691) and 10 mM EDTA was added to quench the kinase reaction and start the detection reaction. After an additional 60 minute incubation at 22° C., the reaction was measured using a PerkinElmer EnVision multimode plate reader via TR-FRET dual wavelength detection, and the percent of control (POC) calculated using a ratiometric emission factor. 100 POC was determined using no test compounds and 0 POC was determined using no enzyme. The POC values were fit to a 4-parameter logistic curve as a function of the concentration of the compound, and the IC50 value is the point where the curve crosses 50 POC.
A general note: In TR-FRET formats the signal depends on donor and acceptor labels being close together.

The target in experiment [4] is phosphorylated FGFR3 (Homo sapiens (Human), UniProt P22607). Kind of experiment: FGFR Enzyme Binding Assay (HTRF tracer displacement), FGFR3. As to conditions: 5 nM phosphorylated FGFR3, 60 minute incubation at 22° C.; read-out: FGFR3 Enz Binding IC50. As for the experimental part:
The potency of compounds inhibiting human isoforms of FGFR kinase was determined using Life Technologies' Homogeneous Time Resolved Fluorescence (HTRF)-based binding assay technology. An incubation was conducted with either 5 nM dephosphorylated FGFR1 (Array Biopharma, p1702; SEQ ID NO: 1, amino acids 458 to 765, dephosphorylated by co-expression with PTP1b (protein tyrosine phosphatase 1B)), 5 nM dephosphorylated FGFR2 (Life Technologies, Cat. No. PV4106 that had been dephosphorylated with Lambda protein phosphatase (New England Biolabs, cat #P0753)) or 5 nM phosphorylated FGFR3 (Array Biopharma, p1836; SEQ ID NO: 5, amino acids 449 to 759), 50 nM Kinase Tracer 236 (Life Technologies Cat. No. PR9078A), 2 nM Biotin-anti-6HIS (Life Technologies Cat. No. PV6090) and 2 nM Europium-Streptavidin (Life Technologies Cat. No. PV6025) along with test compound in a buffer consisting of 50 mM HEPES ((4-(2-hydroxyethyl)-1-piperazineethanesulfonic acid, pH 7.5), 5 mM MgCl2, 0.005% Triton X-100, 1 mM DTT, 1 mM NaVO4 and 2% DMSO in a final volume of 12 μL Compounds were typically prepared as a 3-fold or 4-fold serial dilution in DMSO and added to the assay to give the appropriate final concentration. After a 60 minute incubation at 22° C., the extent of tracer displacement was determined using a PerkinElmer EnVision multimode plate reader via HTRF dual wavelength detection, and the percent of control (POC) was calculated using a ratiometric emission factor. One hundred POC was determined using no test compound, and 0 POC was determined in the presence of 1 μM of an appropriate control inhibitor. A 4-parameter logistic curve was fit to the POC values as a function of the concentration of compound, and the IC50 value was the point where the best-fit curve crossed 50 POC.

Sequence of phosphorylated FGFR3 (P22607 449-759): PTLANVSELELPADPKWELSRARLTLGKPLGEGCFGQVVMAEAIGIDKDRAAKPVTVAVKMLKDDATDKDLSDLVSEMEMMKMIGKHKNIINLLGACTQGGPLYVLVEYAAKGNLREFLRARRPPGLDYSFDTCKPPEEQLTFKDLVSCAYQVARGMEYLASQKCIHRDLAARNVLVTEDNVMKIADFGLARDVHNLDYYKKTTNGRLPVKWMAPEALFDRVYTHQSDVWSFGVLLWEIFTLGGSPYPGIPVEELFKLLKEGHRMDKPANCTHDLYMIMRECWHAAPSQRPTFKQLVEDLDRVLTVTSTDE
Sequence of FGFR3 (P22607 449-759): as above
Sequence of human wild type FGFR3 (P22607 23-806): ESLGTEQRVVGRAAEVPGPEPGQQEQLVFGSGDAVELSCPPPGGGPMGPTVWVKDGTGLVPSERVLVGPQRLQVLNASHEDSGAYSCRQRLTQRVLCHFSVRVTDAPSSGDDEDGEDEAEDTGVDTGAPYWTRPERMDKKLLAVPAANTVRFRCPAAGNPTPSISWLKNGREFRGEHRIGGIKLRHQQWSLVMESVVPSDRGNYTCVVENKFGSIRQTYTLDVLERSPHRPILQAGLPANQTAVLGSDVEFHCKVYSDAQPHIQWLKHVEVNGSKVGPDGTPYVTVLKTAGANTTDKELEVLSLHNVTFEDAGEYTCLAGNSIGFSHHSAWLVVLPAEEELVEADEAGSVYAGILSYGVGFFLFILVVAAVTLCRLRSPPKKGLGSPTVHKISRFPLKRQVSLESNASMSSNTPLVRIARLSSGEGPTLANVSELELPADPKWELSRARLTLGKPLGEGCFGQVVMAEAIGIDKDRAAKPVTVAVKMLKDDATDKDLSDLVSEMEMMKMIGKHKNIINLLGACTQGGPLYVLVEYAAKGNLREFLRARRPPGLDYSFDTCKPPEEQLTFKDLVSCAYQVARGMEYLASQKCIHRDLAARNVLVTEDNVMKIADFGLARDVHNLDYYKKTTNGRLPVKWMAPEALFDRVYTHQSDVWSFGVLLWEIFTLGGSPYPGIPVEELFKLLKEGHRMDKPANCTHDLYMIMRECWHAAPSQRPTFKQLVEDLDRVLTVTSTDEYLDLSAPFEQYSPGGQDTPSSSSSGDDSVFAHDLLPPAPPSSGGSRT
Sequence of recombinant human FGFR1 catalytic domain (P11362 other isoform, or with tags, fused parts or gaps): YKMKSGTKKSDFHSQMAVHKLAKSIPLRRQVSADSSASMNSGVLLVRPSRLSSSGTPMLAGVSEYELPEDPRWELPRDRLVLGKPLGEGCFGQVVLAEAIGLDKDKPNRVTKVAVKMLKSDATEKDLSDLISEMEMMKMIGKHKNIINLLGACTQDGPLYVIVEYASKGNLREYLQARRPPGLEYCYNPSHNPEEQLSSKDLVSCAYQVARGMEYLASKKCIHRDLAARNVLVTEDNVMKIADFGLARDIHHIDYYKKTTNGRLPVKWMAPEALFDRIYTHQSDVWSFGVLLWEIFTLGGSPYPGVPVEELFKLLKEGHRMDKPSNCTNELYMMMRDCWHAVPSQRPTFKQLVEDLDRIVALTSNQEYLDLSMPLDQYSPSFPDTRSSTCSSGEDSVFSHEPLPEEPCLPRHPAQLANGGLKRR

Turning to `C=CC(=O)N1CC(C(=O)N2CC(n3cc(-c4cnc5ccc(Nc6cc(OC)cc(OC)c6)cc5n4)cn3)C2)C1` [Example 16, 1-(3-(3-(4-(7-((3,5-dimethoxyphenyl)amino)-quinoxalin-2-yl)-1H-pyrazol-1-yl)azetidine-1-carbonyl)azetidin-1-yl)-prop-2-en-1-one], the half-maximal inhibitory concentration (IC50) stood at 397 nM in experiment [1], 48 nM in experiment [3] and 5 nM in experiment [4]. In experiment [2], the “FGFR3 Enz kobs” value came out at 0.01232 min⁻¹.

For the compound `C#CCN(c1cc(OC)cc(OC)c1)c1ccc2ncc(-c3cnn(C4CCN(C(=O)C5(F)CN(C(=O)/C=C/CN(C)C)C5)CC4)c3)nc2c1` [Example 28, (E)-1-(3-(4-(4-(7-((3,5-dimethoxyphenyl)(prop-2-yn-1-yl)amino)quinoxalin-2-yl)-1H-pyrazol-1-yl)piperidine-1-carbonyl)-3-fluoroazetidin-1-yl)-4-(dimethylamino)but-2-en-1-one], the half-inhibitory concentration (IC50) in experiment [1] amounted to 8 nM; in experiment [3], 21 nM; in experiment [4], 2 nM. The “FGFR3 Enz kobs” value in experiment [2] was 0.078 min⁻¹.

Take `COc1cc(Nc2ccc3ncc(-c4ccc(N5CCN(C(=O)C6(F)CN(C(=O)/C=C/CN(C)C)C6)CC5)nc4)nc3c2)cc(OC)c1` [Example 7, (E)-1-(3-(4-(5-(7-((3,5-dimethoxyphenyl)amino)-quinoxalin-2-yl)pyridin-2-yl)piperazine-1-carbonyl)-3-fluoroazetidin-1-yl)-4-(dimethylamino)but-2-en-1-one]: the IC50 in experiment [1] was 77 nM; in experiment [3] it was 364 nM; in experiment [4], 11 nM. Also, the “FGFR3 Enz kobs” value in experiment [2] was 0.1309 min⁻¹.

For `C=CC(=O)N1CCC(C(=O)N2CCC(n3cc(-c4cnc5ccc(Nc6cc(OC)cc(OC)c6)cc5n4)cn3)CC2)CC1` [Example 3, 1-(4-(4-(4-(7-((3,5-dimethoxyphenyl)amino)-quinoxalin-2-yl)-1H-pyrazol-1-yl)piperidine-1-carbonyl)piperidin-1-yl)prop-2-en-1-one], the IC50 is 135 nM in experiment [1], 51 nM in experiment [3] and 5 nM in experiment [4]. In addition, the “FGFR3 Enz kobs” value in experiment [2] was determined as 0.00166 min⁻¹.

Regarding `C=CC(=O)N1CC[C@@H](C(=O)N2CCC(n3cc(-c4cnc5ccc(Nc6cc(OC)cc(OC)c6)cc5n4)cn3)CC2)C1` [Example 2, (R)-1-(3-(4-(4-(7-((3,5-dimethoxyphenyl)amino)-quinoxalin-2-yl)-1H-pyrazol-1-yl)piperidine-1-carbonyl)pyrrolidin-1-yl)-prop-2-en-1-one], the figures for the IC50 in experiment [1], in experiment [3] and in experiment [4] were 207 nM, 49 nM and 4 nM, respectively. The “FGFR3 Enz kobs” value in experiment [2] is 0.00302 min⁻¹.

`COc1cc(Nc2ccc3ncc(-c4cnn(C5CCN(C(=O)C6CN(C(=O)/C=C/CN(C)C)C6)CC5)c4)nc3c2)cc(OC)c1` [Example 9, (E)-1-(3-(4-(4-(7-((3,5-dimethoxyphenyl)amino)-quinoxalin-2-yl)-1H-pyrazol-1-yl)piperidine-1-carbonyl)azetidin-1-yl)-4-(dimethylamino)but-2-en-1-one]: the half-maximal inhibitory concentration (IC50) in experiment [1] was 184 nM; in experiment [3] it was 29 nM; in experiment [4], 2 nM. Also, the “FGFR3 Enz kobs” value in experiment [2] is 0.02139 min⁻¹.

As to `COc1cc(Nc2ccc3ncc(-c4cn(C5CCN(C(=O)C6(F)CN(C(=O)/C=C/CN(C)C)C6)CC5)nc4C)nc3c2)cc(OC)c1` [Example 22, (E)-1-(3-(4-(4-(7-((3,5-dimethoxyphenyl)amino)-quinoxalin-2-yl)-3-methyl-1H-pyrazol-1-yl)-piperidine-1-carbonyl)-3-fluoroazetidin-1-yl)-4-(dimethylamino)but-2-en-1-one], the IC50 in experiment [1] came to 113 nM; in experiment [3], 339 nM; in experiment [4], 4 nM. Further, the “FGFR3 Enz kobs” value in experiment [2] was determined as 0.05725 min⁻¹.

As for `C=CC(=O)N1CC(C(=O)N2CCC(n3ncc(-c4cnc5ccc(Nc6cc(OC)cc(OC)c6)cc5n4)c3C)CC2)C1` [Example 18, 1-(3-(4-(4-(7-((3,5-dimethoxyphenyl)amino)-quinoxalin-2-yl)-5-methyl-1H-pyrazol-1-yl)piperi-dine-1-carbonyl)azetidin-1-yl)prop-2-en-1-one], the half-inhibitory concentration (IC50) was determined as 216 nM in experiment [1], 1210 nM in experiment [3] and 18 nM in experiment [4]. For the same compound, in experiment [2], the “FGFR3 Enz kobs” value turned out to be 0.01462 min⁻¹.

For the compound `C=CC(=O)N1CC(C(=O)N2CC[C@@H](n3cc(-c4cnc5ccc(Nc6cc(OC)cc(OC)c6)cc5n4)cn3)C2)C1` [Example 21, (R)-1-(3-(3-(4-(7-((3,5-dimethoxyphenyl)amino)-quinoxalin-2-yl)-1H-pyrazol-1-yl)pyrrolidine-1-carbonyl)azetidin-1-yl)prop-2-en-1-one], the IC50 turned out to be 390 nM in experiment [1], 295 nM in experiment [3] and 5 nM in experiment [4]. In addition, the “FGFR3 Enz kobs” value in experiment [2] is 0.00664 min⁻¹.

On to `C=CC(=O)N1CC(CN2CCC(n3cc(-c4cnc5ccc(Nc6cc(OC)cc(OC)c6)cc5n4)cn3)CC2)(OC)C1` [Example 29, 1-(3-((4-(4-(7-((3,5-dimethoxyphenyl)amino)quinoxalin-2-yl)-1H-pyrazol-1-yl)piperidin-1-yl)methyl)-3-methoxyazetidin-1-yl)prop-2-en-1-one], for which the IC50 stood at 25 nM in experiment [1], 414 nM in experiment [3] and 3 nM in experiment [4]. For the same compound, the “FGFR3 Enz kobs” value in experiment [2] turned out to be 0.01671 min⁻¹.

The IC50 is the concentration that gives 50% inhibition.
